Experimental data taken from patent US20230265103A1 (TME Therapeutics LLC, priority 2021, published 2023).

Target: T1, PIKFYVE (Homo sapiens, UniProt Q9Y2I7)
T1 construct: purchased Eurofins (KINOMEscan); host or cells: E. coli BL21-derived (T7 phage display) or HEK-293
Experiment: KINOMEscan Kinase Assay (Eurofins), PIKFYVE inhibitory activity
Format: binding
Conditions: @ 1 nM

T1 sequence (Q9Y2I7 whole entry): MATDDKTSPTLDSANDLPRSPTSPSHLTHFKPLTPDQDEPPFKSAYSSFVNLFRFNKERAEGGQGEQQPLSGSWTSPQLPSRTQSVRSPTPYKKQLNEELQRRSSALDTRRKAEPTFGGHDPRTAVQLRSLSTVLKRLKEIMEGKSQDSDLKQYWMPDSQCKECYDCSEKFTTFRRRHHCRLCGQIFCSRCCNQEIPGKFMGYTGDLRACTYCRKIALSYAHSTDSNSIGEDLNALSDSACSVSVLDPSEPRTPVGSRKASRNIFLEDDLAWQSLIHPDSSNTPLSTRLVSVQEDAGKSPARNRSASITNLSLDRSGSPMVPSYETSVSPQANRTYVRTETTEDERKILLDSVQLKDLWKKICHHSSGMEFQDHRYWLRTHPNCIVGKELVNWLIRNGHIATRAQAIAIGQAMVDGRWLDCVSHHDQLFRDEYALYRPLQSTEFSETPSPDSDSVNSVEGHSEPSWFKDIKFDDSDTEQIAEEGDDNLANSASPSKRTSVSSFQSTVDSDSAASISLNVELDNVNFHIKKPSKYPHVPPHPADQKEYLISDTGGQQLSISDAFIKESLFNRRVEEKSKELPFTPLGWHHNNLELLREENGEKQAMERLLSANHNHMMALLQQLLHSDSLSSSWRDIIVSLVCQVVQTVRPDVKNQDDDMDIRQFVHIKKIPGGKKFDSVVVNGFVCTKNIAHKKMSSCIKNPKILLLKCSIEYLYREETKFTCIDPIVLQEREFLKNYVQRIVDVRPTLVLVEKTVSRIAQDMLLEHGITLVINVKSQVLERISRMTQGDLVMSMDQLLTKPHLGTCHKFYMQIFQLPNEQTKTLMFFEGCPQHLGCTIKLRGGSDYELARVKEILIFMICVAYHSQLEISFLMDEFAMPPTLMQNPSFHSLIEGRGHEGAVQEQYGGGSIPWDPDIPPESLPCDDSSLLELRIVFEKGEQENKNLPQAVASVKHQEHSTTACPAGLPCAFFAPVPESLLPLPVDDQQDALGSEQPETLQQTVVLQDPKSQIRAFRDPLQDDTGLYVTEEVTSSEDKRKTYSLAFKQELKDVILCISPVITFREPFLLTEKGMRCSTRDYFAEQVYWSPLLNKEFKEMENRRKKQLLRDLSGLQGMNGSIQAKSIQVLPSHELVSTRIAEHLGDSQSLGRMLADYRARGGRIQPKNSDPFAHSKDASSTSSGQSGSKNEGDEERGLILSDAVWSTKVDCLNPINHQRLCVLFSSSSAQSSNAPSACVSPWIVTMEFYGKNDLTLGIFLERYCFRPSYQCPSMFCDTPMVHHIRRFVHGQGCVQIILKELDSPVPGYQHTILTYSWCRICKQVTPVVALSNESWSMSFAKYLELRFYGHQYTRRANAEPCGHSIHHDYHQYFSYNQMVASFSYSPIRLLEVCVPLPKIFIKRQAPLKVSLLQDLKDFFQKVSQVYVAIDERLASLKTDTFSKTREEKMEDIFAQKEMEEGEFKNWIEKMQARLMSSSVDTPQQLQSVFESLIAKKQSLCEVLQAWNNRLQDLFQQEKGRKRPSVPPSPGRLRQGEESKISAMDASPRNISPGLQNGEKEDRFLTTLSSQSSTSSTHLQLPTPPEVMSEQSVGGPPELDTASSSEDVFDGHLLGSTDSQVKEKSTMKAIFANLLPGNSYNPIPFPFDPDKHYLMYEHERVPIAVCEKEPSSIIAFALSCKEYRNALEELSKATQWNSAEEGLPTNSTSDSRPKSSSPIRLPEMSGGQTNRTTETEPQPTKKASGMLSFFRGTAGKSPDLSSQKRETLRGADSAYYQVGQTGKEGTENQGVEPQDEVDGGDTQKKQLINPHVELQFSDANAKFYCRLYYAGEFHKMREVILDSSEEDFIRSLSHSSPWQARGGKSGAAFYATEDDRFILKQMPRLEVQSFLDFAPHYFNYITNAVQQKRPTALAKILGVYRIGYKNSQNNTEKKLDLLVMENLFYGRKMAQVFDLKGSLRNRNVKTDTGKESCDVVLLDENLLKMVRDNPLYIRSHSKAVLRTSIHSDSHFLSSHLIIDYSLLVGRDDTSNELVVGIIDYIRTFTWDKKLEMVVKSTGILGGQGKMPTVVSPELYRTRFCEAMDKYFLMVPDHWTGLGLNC

Inhibition at 0.001 µM, 17%:
Cc1cccc(-c2ccn(-c3nc(N4CCOCC4)c4sc(CO)c(C)c4n3)n2)c1 [Ex. 53, (7-methyl-4-morpholino-2-(3-(m-tolyl)-1H-pyrazol-1-yl)thieno[3,2-d]pyrimidin-6-yl)methanol]

Same assay, conditions: @ 3 nM

Inhibition at 0.003 µM, 0%:
Cc1cccc(-c2ccn(-c3cc(N4CCOCC4)c4sc(CN5CCOCC5)c(C)c4n3)n2)c1 [Ex. 167, 4-(3-Methyl-2-(morpholinomethyl)-5-(3-(m-tolyl)-1H-pyrazol-1-yl)thieno[3,2-b]pyridin-7-yl)morpholine]

Inhibition at 0.003 µM, 23%:
Cc1cccc(-c2ccn(-c3cc(N4CCOCC4)c4sc(CN5CCC(C(C)(C)O)CC5)c(C)c4n3)n2)c1 [Ex. 168, 2-(1-((3-Methyl-7-morpholino-5-(3-(m-tolyl)-1H-pyrazol-1-yl)thieno[3,2-b]pyridin-2-yl)methyl)piperidin-4-yl)propan-2-ol]

Inhibition at 0.003 µM, 94%:
Cc1cccc(-c2ccn(-c3nc(N4CCOCC4)c4nc(CN5CCOCC5)n(C)c4n3)n2)c1 [Ex. 56, 4-((9-methyl-6-morpholino-2-(3-(m-tolyl)-1H-pyrazol-1-yl)-9H-purin-8-yl)methyl)morpholine]

Inhibition at 0.003 µM, 22%:
Cc1cccc(-c2ccn(-c3nc(N4CCOCC4)c4sc(N5CCN(S(C)(=O)=O)CC5)cc4n3)n2)c1 [Ex. 165, 4-(6-(4-(methylsulfonyl)piperazin-1-yl)-2-(3-(m-tolyl)-1H-pyrazol-1-yl)thieno[3,2-d]pyrimidin-4-yl)morpholine]

Same assay, conditions: @ 5 nM

Inhibition at 0.005 µM, 5%:
CC(=O)c1cccc(-c2ccn(-c3cc(N4CCOCC4)c4sc(CN5CCOCC5)cc4n3)n2)c1 [Ex. 184, 1-(3-(1-(7-Morpholino-2-(morpholinomethyl)thieno[3,2-b]pyridin-5-yl)-1H-pyrazol-3-yl)phenyl)ethan-1-one]

Inhibition at 0.005 µM, 22%:
CC(O)c1cccc(-c2ccn(-c3cc(N4CCOCC4)c4sc(CN5CCOCC5)cc4n3)n2)c1 (stereo not shown) [Ex. 193, 1-(3-(1-(7-Morpholino-2-(morpholinomethyl)thieno[3,2-b]pyridin-5-yl)-1H-pyrazol-3-yl)phenyl)ethan-1-ol]

Same assay, conditions: @ 50 nM

Inhibition at 0.05 µM, 100%:
CC(=O)N(C)C1CCN(Cc2cc3nc(-n4ccc(-c5cccc(C)c5)n4)nc(N4CCOCC4)c3s2)CC1 [Ex. 7, N-methyl-N-(1-((4-morpholino-2-(3-(m-tolyl)-1H-pyrazol-1-yl)thieno[3,2-d]pyrimidin-6-yl)methyl)piperidin-4-yl)acetamide]
Cc1cccc(-c2ccn(-c3nc(N4CCOCC4)c4sc(CN5CCC(N(C)S(C)(=O)=O)CC5)cc4n3)n2)c1 [Ex. 6, N-methyl-N-(1-((4-morpholino-2-(3-(m-tolyl)-1H-pyrazol-1-yl)thieno[3,2-d]pyrimidin-6-yl)methyl)piperidin-4-yl)methanesulfonamide]

Same assay, conditions: @ 1000 nM

Inhibition at 1 µM, 98%:
Cc1cccc(-c2ccn(-c3cc(N4CCOCC4)c4nc(CN5CCC(N6CCOCC6)CC5)[nH]c4n3)n2)c1 [Ex. 42, 4-(1-((7-morpholino-5-(3-(m-tolyl)-1H-pyrazol-1-yl)-3H-imidazo[4,5-b]pyridin-2-yl)methyl)piperidin-4-yl)morpholine]

Same assay, conditions: KINOMEscan

IC50, < 1 nM:
Cc1cccc(-c2ccn(-c3cc(N4CCOCC4)c4nc(CN5CCC(N(C)C)C(F)C5)[nH]c4n3)n2)c1 (stereo not shown) [Ex. 52, 3-fluoro-N,N-dimethyl-1-((7-morpholino-5-(3-(m-tolyl)-1H-pyrazol-1-yl)-3H-imidazo[4,5-b]pyridin-2-yl)methyl)piperidin-4-amine]
Cc1cccc(-c2ccn(-c3nc(N4CCOCC4)c4sc(C(=O)N5CCC(C(C)(C)O)CC5)cc4n3)n2)c1 [Ex. 22, (4-(2-hydroxypropan-2-yl)piperidin-1-yl)(4-morpholino-2-(3-(m-tolyl)-1H-pyrazol-1-yl)thieno[3,2-d]pyrimidin-6-yl)methanone]
Cc1cccc(-c2ccn(-c3nc(N4CCOCC4)c4sc(C(=O)N5CC[C@H](N(C)C)C5)cc4n3)n2)c1 [Ex. 24, (S)-(3-(dimethylamino)pyrrolidin-1-yl)(4-morpholino-2-(3-(m-tolyl)-1H-pyrazol-1-yl)thieno[3,2-d]pyrimidin-6-yl)methanone]
Cc1cccc(-c2ccn(-c3cc(N4CCOCC4)c4sc(CN5CCN(C)CC5)cc4n3)n2)c1 [Ex. 67]
Cc1cccc(-c2ccn(-c3cc(N4CCOCC4)c4nc(CN5CCN(C)CC5)[nH]c4n3)n2)c1 [Ex. 39, 4-(2-((4-methylpiperazin-1-yl)methyl)-5-(3-(m-tolyl)-1H-pyrazol-1-yl)-3H-imidazo[4,5-b]pyridin-7-yl)morpholine]
Cc1cccc(-c2ccn(-c3nc(N4CCOCC4)c4nc(CN5CC(N6CCCC6)C5)[nH]c4n3)n2)c1 [Ex. 36, 4-(8-((3-(pyrrolidin-1-yl)azetidin-1-yl)methyl)-2-(3-(m-tolyl)-1H-pyrazol-1-yl)-9H-purin-6-yl)morpholine]
Cc1cccc(-c2ccn(-c3cc(N4CCOCC4)c4nc(CN5CCN(S(C)(=O)=O)CC5)n(C)c4n3)n2)c1 [Ex. 72, 4-(3-methyl-2-((4-(methylsulfonyl)piperazin-1-yl)methyl)-5-(3-(m-tolyl)-1H-pyrazol-1-yl)-3H-imidazo[4,5-b]pyridin-7-yl)morpholine]
Cc1cccc(-c2ccn(-c3cc(N4CCOCC4)c4sc(CN5CCOCC5)cc4n3)n2)c1 [Ex. 66, 4-((7-morpholino-5-(3-(m-tolyl)-1H-pyrazol-1-yl)thieno[3,2-b]pyridin-2-yl)methyl)morpholine]
Cc1cccc(-c2ccn(-c3cc(N4CCOCC4)c4sc(CN5CCC(N6CCC6)C(F)C5)cc4n3)n2)c1 (stereo not shown) [Ex. 70, 4-(2-((4-(azetidin-1-yl)-3-fluoropiperidin-1-yl)methyl)-5-(3-(m-tolyl)-1H-pyrazol-1-yl)thieno[3,2-b]pyridin-7-yl)morpholine]
Cc1cccc(-c2ccn(-c3nc(N4CCOCC4)c4sc(CN5CCC(N(C)C)CC5)cc4n3)n2)c1 [Ex. 4, N, N-dimethyl-1-((4-morpholino-2-(3-(m-tolyl)-1H-pyrazol-1-yl)thieno[3,2-d]pyrimidin-6-yl)methyl)piperidin-4-amine]
Cc1cccc(-c2ccn(-c3nc(N4CCOCC4)c4sc(CN5CCC(N(C)C)C(F)C5)c(C)c4n3)n2)c1 (stereo not shown) [Ex. 55, 3-fluoro-N,N-dimethyl-1-((7-methyl-4-morpholino-2-(3-(m-tolyl)-1H-pyrazol-1-yl)thieno[3,2-d]pyrimidin-6-yl)methyl)piperidin-4-amine]
Cc1cccc(-c2ccn(-c3nc(N4CCOCC4)c4sc(CN5CCOCC5)cc4n3)n2)c1 [Ex. 29, 4-((4-morpholino-2-(3-(m-tolyl)-1H-pyrazol-1-yl)thieno[3,2-d]pyrimidin-6-yl)methyl)morpholine]
Cc1cccc(-c2ccn(-c3nc(N4CCOCC4)c4nc(CN5CCC(N6CCC6)C(F)C5)[nH]c4n3)n2)c1 (stereo not shown) [Ex. 43, 4-(8-((4-(azetidin-1-yl)-3-fluoropiperidin-1-yl)methyl-2-(3-m-tolyl)-1H-pyrazol-1-yl)-9H-purin-6-yl)morpholine]
Cc1cccc(-c2ccn(-c3nc(N4CCOCC4)c4sc(CN5CCC(N6CCC6)C(F)C5)cc4n3)n2)c1 (stereo not shown)
Cc1cccc(-c2ccn(-c3nc(N4CCOCC4)c4nc(CN5CCC(N(C)C)CC5)sc4n3)n2)c1 [Ex. 16, N,N-dimethyl-1-((7-morpholino-5-(3-(m-tolyl)-1H-pyrazol-1-yl)thiazolo[5,4-d]pyrimidin-2-yl)methyl)piperidin-4-amine]
Cc1cccc(-c2ccn(-c3cc(N4CCOCC4)c4nc(CN5CCC(C(C)(C)O)CC5)n(C)c4n3)n2)c1 [Ex. 76, 2-(1-((3-methyl-7-morpholino-5-(3-(m-tolyl)-1H-pyrazol-1-yl)-3H-imidazo[4,5-b]pyridin-2-yl)methyl)piperidin-4-yl)propan-2-ol]
Cc1cccc(-c2ccn(-c3nc(N4CCOCC4)c4sc(CN5CC6C(C5)C6N(C)C)cc4n3)n2)c1 (stereo not shown) [Ex. 20, N,N-dimethyl-3-((4-morpholino-2-(3-(m-tolyl)-1H-pyrazol-1-yl)thieno[3,2-d]pyrimidin-6-yl)methyl)-3-azabicyclo[3.1.0]hexan-6-amine]
Cc1cccc(-c2ccn(-c3cc(N4CCOCC4)c4nc(CN5CCOCC5)n(C)c4n3)n2)c1 [Ex. 74, 4-(3-methyl-2-(morpholinomethyl)-5-(3-(m-tolyl)-1H-pyrazol-1-yl)-3H-imidazo[4,5-b]pyridin-7-yl)morpholine]

IC50, 1 to 10 nM:
Cc1cccc(-c2ccn(-c3nc(N4CCOCC4)c4nc(CN5CCC(N(C)S(C)(=O)=O)CC5)[nH]c4n3)n2)c1 [Ex. 11, N-methyl-N-(1-((6-morpholino-2-(3-(m-tolyl)-1H-pyrazol-1-yl)-9H-purin-8-yl)methyl)piperidin-4-yl)methanesulfonamide]
Cc1cccc(-c2ccn(-c3nc(N4CCOCC4)c4nc(CN5CCOCC5)sc4n3)n2)c1 [Ex. 30, 4-((7-morpholino-5-(3-(m-tolyl)-1H-pyrazolyl)thiazolo[5,4-d]pyrimidin-2-yl)methyl)morpholine]
Cc1cccc(-c2ccn(-c3nc(N4CCOCC4)c4sc(C(C)N5CCN(S(C)(=O)=O)CC5)cc4n3)n2)c1 (stereo not shown) [Ex. 26, 4-(6-(1-(4-(methylsulfonyl)piperazin-1-yl)ethyl)-2-(3-(m-tolyl)-1H-pyrazol-1-yl)thieno[3,2-d]pyrimidin-4-yl)morpholine]
COC(C)(C)c1sc2c(N3CCOCC3)nc(-n3ccc(-c4cccc(C)c4)n3)nc2c1C [Ex. 64, 4-(6-(2-methoxypropan-2-yl)-7-methyl-2-(3-(m-tolyl)-1H-pyrazol-1-yl)thieno[3,2-d]pyrimidin-4-yl)morpholine]
COc1cccc(-c2ccn(-c3nc(N4CCOCC4)c4sc(CN5CCN(S(C)(=O)=O)CC5)cc4n3)n2)c1 [Ex. 3, 4-(2-(3-(3-methoxyphenyl)-1H-pyrazol-1-yl)-6-((4-(methylsulfonyl)piperazin-1-yl)methyl)thieno[3,2-d]pyrimidin-4-yl)morpholine]
Cc1cccc(-c2ccn(-c3cc(N4CCOCC4)c4nc(CN5CC(N(C)C)C5)[nH]c4n3)n2)c1 [Ex. 48, N,N-dimethyl-1-((7-morpholino-5-(3-(m-tolyl)-1H-pyrazol-1-yl)-3H-imidazo[4,5-b]pyridin-2-yl)methyl)azetidin-3-amine]
